In patent US20070254288A1, “Diagnostic methods for pain sensitivity and chronicity and for tetrahydrobiopterin-related disorders” (The General Hospital Corporation, priority 2005, published 2007):
“Also recorded” adds a separate entry of the source. Counter-ions that a name gives are not always drawn.

Columns and labels:
Sprague Dawley rats [1] = assay: Nociceptive thresholds in naïve animals (von Frey, radiant heat); type: in vivo, rat
Experimental: (§1) Animals were fully habituated and experiments performed blinded. Threshold for eliciting a withdrawal reflex to graded strength monofilament von Frey hairs (0.0174-20.9 g) was measured to assess mechanical allodynia. To measure cold allodynia, a drop of acetone was applied to the plantar hindpaw, and the time the animal spent licking, shaking or lifting the paw was measured (Tegeder et al., J Neurosci 24:1637-1645 (2004)). Paw withdrawal latency to radiant heat (lamp with 8 V, 50 W) assessed heat evoked pain (Ugo Basile).
(§2) DAHP was dissolved in 1:1 polyethylene glycol (PEG400) and 1×PBS, pH 7.4 (15 mg/ml) and administered i.p. or intrathecally (250 μg/kg/h; 5 μl/h). For all i.t. injections/infusions a spinal catheter (Recathco) was used and implanted as described (Kunz et al., Pain 110:409-418 (2004)). Infusions with an osmotic pump (Alzet). 6R-BH4 in ACSF was injected i.t. (10 μg, single 10 μl injection). N-acetyl-serotonin in 1×PBS pH 7.4 containing 3% ethanol was delivered by i.t. infusion (100 μg/kg/h; 5 μl/h). Control animals received the appropriate vehicle. All drugs from Sigma-Aldrich.

[2] = tested on: cultured adult rat DRG neurons; assay: Calcium imaging (fura-2) in cultured adult rat DRG neurons; type: cell-based
Experimental: Miniature EPSCs were recorded at −70 mV by whole cell patch clamp in adult rat transverse spinal cord slices (Baba et al., Mol Cell Neurosci 24:818-830 (2003)). Intracellular [Ca]I was measured fluorometrically (ΔF 340/380) in cultured adult DRG neurons loaded with fura-2. 6R-BH4 (0.3-10 μM), DEA-NONOate (50 μM), and L-NAME (10-100 μM) were applied using a multibarrel fast drug delivery system.

Sprague Dawley rats [3] = assay: Spared nerve injury (SNI) model: mechanical (von Frey) and cold (acetone) allodynia; type: in vivo, rat; details: SNI
Experimental: (§3) Adult male Sprague Dawley rats (150-200 g, Charles River Laboratories) were used. For the SNI model two branches of the sciatic nerve, the common peroneal and the tibial nerve, were ligated and sectioned distally. For the CCI model the sciatic nerve was constricted with three Dexon 4/0 ligatures. For the SNL model, the L5 spinal nerve was tightly ligated. All surgical procedures were under isoflurane anesthesia. For the Formalin test 50 μl of 5% formaldehyde solution were injected into a hindpaw and flinches were counted per minute up to 60 min. Paw inflammation was induced with 50 μl complete Freund's adjuvant (CFA) injected into a hindpaw. Nociceptive analysis was done blinded, and animals were fully habituated to the room and test cages. Mechanical allodynia was assessed with graded strength monofilament von Frey hairs (0.0174-20.9 gram, log scaled), cold allodynia with the acetone test and heat hyperalgesia with the Hargreaves test. Drugs (Sigma) were injected intraperitoneally or intrathecally through a spinal catheter, osmotic pumps were used for infusion. Control animals received vehicle. L4/5 DRG and spinal cord tissue was processed for QRT-PCR, Western blotting, in situ hybridization and immunofluorescence studies.
as §1, §2
Data are means ±SEM. The number of animals per group was 9-12. Areas under the “effect versus time” curves (AUC) were calculated using the linear trapezoidal rule and compared with Student's t-test or univariate analysis of variance (ANOVA) with subsequent t-tests employing a Bonferroni alpha-correction for multiple comparisons. All other data were analyzed with univariate ANOVA or ANOVA for repeated measurements. P at 0.05 for all tests.

Sprague Dawley rats [4] = assay: CFA-induced paw inflammation: thermal hyperalgesia (Hargreaves); type: in vivo, rat; details: single dose 50 mg/kg i.p.; 50 mg/kg
Experimental: as §3, with “Drugs (Sigma) were injected intraperitoneally or intrathecally through a spinal catheter, osmotic pumps were used for infusion. Control animals received vehicle. L4/5 DRG and spinal cord tissue was processed for QRT-PCR, Western blotting, in situ hybridization and immunofluorescence studies.” left out
For the Formalin test 50 μl of 5% formaldehyde solution were injected into one hindpaw and flinches were counted per minute up to 60 min. […]
as §1
Data are means ±SEM. […] Areas under the “effect versus time” curves (AUC) were calculated using the linear trapezoidal rule and compared with Student's t-test or univariate analysis of variance (ANOVA) with subsequent t-tests employing a Bonferroni alpha-correction for multiple comparisons. All other data were analyzed with univariate ANOVA or ANOVA for repeated measurements. […]

[5] = tested on: BH4 synthesis (GTP cyclohydrolase activity); assay: Tissue concentrations of neopterin and biopterin in L4/5 DRGs (LC/MS-MS); type: in vivo, rat; details: seven days after SNI
Experimental: Homogenized tissue was oxidized with iodine, and pteridines were extracted on Oasis MCX cartridges. Concentrations of total biopterin, neopterin, and the internal standard rhamnopterin were determined by LC/MS-MS. LC analysis under gradient conditions on a Nucleosil C8 column; MS-MS analyses on an API 4000 Q TRAP triple quadrupole mass spectrometer. Precursor-to-product ion transitions of m/z 236→192 for biopterin, m/z 252→192 for neopterin, m/z 265→192 for rhamnopterin were used for the MRM. Linearity from 0.1-50 ng/ml. The coefficient of correlation for all measured sequences was at least 0.99. The intra-day and inter-day variability was <10%.

[6] = Observation of general well-being, body weight, gait, activity; type: in vivo, rat; details: 100 μg/kg/hr i.t. after SNI
biopterin = assay: Forskolin stimulation of whole blood from healthy volunteers: biopterin; type: cell-based, human; details: 10 μM, 24 h
Text: FIGS. 14C-14F show the effect of forskolin on patient white blood cells. […] White bars unstimulated; grey after stimulation. […] Results represent means with SEM.

C[C@H](O)[C@H](O)[C@H]1CNc2nc(N)[nH]c(=O)c2N1 [6R-BH4, (6R)-5,6,7,8-tetrahydrobiopterin dihydrochloride]
latency of pain production (Sprague Dawley rats [1]; rat, in vivo): < 30 min | recorded cells with increased intracellular calcium ([2]; 0.3-10 μM, n=95): 67%

CCN(CC)/[N+]([O-])=N/O.CCNCC [DEA-NONOate]
intracellular calcium increase ([2]; 50 μM, n=32, compared with BH4): produced similar increases

COC(=O)[C@@H](N)CCCNC(=N)N[N+](=O)[O-] [L-NAME]
mechanical and cold allodynia (Sprague Dawley rats [3]; 25 mg/kg i.p., 25 mg/kg): significant effects for von Frey and acetone responses; also recorded: reduced SNI-evoked mechanical and cold allodynia | BH4 mediated increase in [Ca2+]I ([2]; 50 μM): significantly reduced the BH4 mediated increase | DEA-NONOate induced increase of [Ca2+]I ([2]; L-NAME 50 μM, DEA-NONOate 50 μM): has no effect | reduction of the BH4 effect on intracellular calcium ([2]; n=29, p<0.01): 47±4%

CC(=O)NCCc1c[nH]c2ccc(O)cc12 [NAS, N-acetyl-serotonin]
mechanical and cold allodynia (Sprague Dawley rats [3]; 100 μg/kg/h i.t. infusion 14 days): significantly reduced mechanical and cold allodynia; also recorded: significantly reduces nerve-injury evoked mechanical and cold allodynia | thermal hyperalgesia (Sprague Dawley rats [4]): significantly reduces thermal hyperalgesia | total biopterin levels in L4/5 DRGs [5]: reduced biopterin levels; also recorded: significantly reduces total biopterin levels | overt adverse effects [6]: without overt adverse effects

C=C[C@@]1(C)CC(=O)[C@]2(O)[C@@]3(C)[C@@H](O)CCC(C)(C)[C@@H]3[C@H](O)[C@H](OC(C)=O)[C@@]2(C)O1 [forskolin]
biopterin increase in whole blood (biopterin; homozygous carriers of the haplotype): 20% | biopterin increase in whole blood (biopterin; non-carriers): about 60%

Nc1nc2ncc([C@H](O)[C@H](O)CO)nc2c(=O)[nH]1 [neopterin]
mechanical and thermal pain sensitivity (Sprague Dawley rats [1]; naïve rats, i.t. 10 μg, 10 μl): had no effect on mechanical and thermal pain sensitivity; also recorded: had no significant effect
